In the oligonucleotide strings, read from the 5' end, every base follows the letter of its sugar. An asterisk marks phosphorothioate; unmarked linkages are phosphodiester. Other units and linkages are bracketed, terminal groups are in braces. A string of capitals states the bases alone. e = 2'-O-(2-methoxyethyl) (MOE); [5mC] = 5-methylcytosine; d = 2'-deoxy (DNA)
System: human Factor 7 mRNA
Assay: Inhibition of human Factor 7 mRNA by 2-10-2 MOE shortmers in HepB3 cells, electroporation, 1,000 nM
Format: cell-based
Details: electroporation, 1,000 nM oligonucleotide, approximately 24 hours, relative to untreated control cells
From the text: Short antisense oligonucleotides (shortmers) were designed to target a Factor 7 nucleic acid. The shortmers in Table 17 were designed as 2-10-2 MOE gapmers. The gapmers are 14 nucleotides in length, wherein the central gap segment is comprised of 10 2′-deoxynucleotides and is flanked on both sides (in the 5′ and 3′ directions) by wings comprising 2 nucleotides each. Each nucleotide in the 5′ wing segment and each nucleotide in the 3′ wing segment has a 2′-MOE modification. The internucleoside linkages throughout each gapmer are phosphorothioate (P═S) linkages. All cytidine residues throughout each gapmer are 5-methylcytidines.
Shortmers were evaluated for their ability to reduce human Factor 7 mRNA in HepB3 cells and compared with one 5-10-5 chimeric oligonucleotide from Table 16, ISIS 407939. HepB3 cells at a density of 20,000 cells per well in a 96-well plate were transfected using electroporation with 1,000 nM of antisense oligonucleotide. After a treatment period of approximately 24 hours, RNA was isolated from the cells and Factor 7 mRNA levels were measured by real-time RT-PCR, as described herein. Factor 7 mRNA levels were adjusted according to total RNA content as measured by RIBOGREEN®. Results are presented in Table 17 as percent inhibition of Factor 7 mRNA, relative to untreated control cells. ISIS 407939 is the first oligonucleotide in […] to which the shortmers were compared, and is marked by an asterisk (*).

| Substance | % inhibition of human Factor 7 mRNA [%] |
| --- | --- |
| 435822 (antisense e[5mC]*e[5mC]*dA*dG*dG*dA*dG*d[5mC]*d[5mC]*dT*dT*dT*eA*e[5mC]) [compound 435822] | 37 |
| 435672 (antisense eA*e[5mC]*d[5mC]*d[5mC]*dA*dG*dA*dT*dG*dG*dT*dG*eT*eT) [compound 435672] | 12 |
| 435801 (antisense e[5mC]*eG*dG*dT*dT*dG*dG*d[5mC]*d[5mC]*dA*dG*dG*e[5mC]*e[5mC]) [compound 435801] | 38 |
| 435792 (antisense eT*eG*d[5mC]*dT*dG*dA*dA*dG*dA*dA*dA*d[5mC]*eT*eG) [compound 435792] | 9 |
| 435796 (antisense eT*eG*dA*d[5mC]*d[5mC]*dA*d[5mC]*dA*d[5mC]*dA*dT*dT*eT*e[5mC]) [compound 435796] | 30 |
| 435847 (antisense eT*eG*dG*dT*dG*dT*dG*d[5mC]*dA*d[5mC]*dA*d[5mC]*eA*eT) [compound 435847] | 36 |
| 435679 (antisense e[5mC]*eG*d[5mC]*dT*dG*dA*dG*dG*dT*d[5mC]*dG*dT*eG*e[5mC]) [compound 435679] | 62 |
| 435748 (antisense eT*e[5mC]*d[5mC]*d[5mC]*dA*dG*dG*dG*dT*d[5mC]*dT*d[5mC]*eT*eG) [compound 435748] | 18 |
| 435812 (antisense eG*e[5mC]*dT*dG*dA*dG*d[5mC]*dA*dG*dA*dG*dA*eT*e[5mC]) [compound 435812] | 35 |
| 435777 (antisense e[5mC]*eT*dG*dA*dG*dG*dA*dT*dG*d[5mC]*dA*dG*eG*e[5mC]) [compound 435777] | 53 |
| 435690 (antisense eG*eT*d[5mC]*d[5mC]*dG*dT*dT*d[5mC]*dG*dG*dG*d[5mC]*eA*eG) [compound 435690] | 55 |
| 435750 (antisense e[5mC]*eA*d[5mC]*dT*dG*d[5mC]*dA*dG*d[5mC]*d[5mC]*dA*dG*eG*eG) [compound 435750] | 14 |
| 435686 (antisense e[5mC]*eA*dG*dT*dG*dA*dG*dG*dA*d[5mC]*d[5mC]*dA*e[5mC]*eG) [compound 435686] | 31 |
| 435480 (antisense eG*eG*dT*d[5mC]*dA*dT*d[5mC]*dA*dG*d[5mC]*d[5mC]*dG*eG*eG) [compound 435480] | 53 |
| 435795 (antisense eA*e[5mC]*dA*d[5mC]*d[5mC]*d[5mC]*dG*dA*dG*dG*dT*dT*e[5mC]*eA) [compound 435795] | 66 |
| 435779 (antisense eT*eG*dA*dG*d[5mC]*dG*d[5mC]*dG*dG*dA*dA*dG*eA*eA) [compound 435779] | 50 |
| 435765 (antisense e[5mC]*eA*dA*dA*dG*dT*dT*d[5mC]*dT*d[5mC]*dT*dG*e[5mC]*e[5mC]) [compound 435765] | 1 |
| 435761 (antisense e[5mC]*eA*dG*dA*dT*dG*dA*dA*dA*dA*d[5mC]*dT*eT*eG) [compound 435761] | 5 |
| 435830 (antisense eT*eG*dA*dT*dT*dT*dT*dG*d[5mC]*dA*dA*dA*eG*eA) [compound 435830] | 0 |
| 435656 (antisense eA*e[5mC]*dT*dG*d[5mC]*dT*d[5mC]*dA*d[5mC]*dA*dG*d[5mC]*e[5mC]*eG) [compound 435656] | 58 |
| 435653 (antisense eA*eT*d[5mC]*dA*dG*d[5mC]*dT*dG*dG*dT*d[5mC]*dA*eT*e[5mC]) [compound 435653] | 32 |
| 435826 (antisense eA*eA*dG*dT*dG*dG*d[5mC]*dT*dG*dG*d[5mC]*dT*eG*eA) [compound 435826] | 27 |
| 435804 (antisense e[5mC]*eA*dG*dG*dG*dA*d[5mC]*dT*d[5mC]*dT*d[5mC]*dA*eG*e[5mC]) [compound 435804] | 26 |
| 435814 (antisense eT*eG*dA*d[5mC]*dG*dA*dG*dA*dG*dG*dA*d[5mC]*e[5mC]*eA) [compound 435814] | 31 |
| 435487 (antisense eA*eG*dT*d[5mC]*d[5mC]*dT*dG*dG*dG*dT*d[5mC]*dA*eT*e[5mC]) [compound 435487] | 36 |
| 435643 (antisense e[5mC]*eT*dT*dG*d[5mC]*dA*dG*dG*dA*dG*d[5mC]*d[5mC]*e[5mC]*e[5mC]) [compound 435643] | 51 |

| Substance | % inhibition of human Factor 7 mRNA [%] |
| --- | --- |
| 435727 (antisense eT*eG*dG*dA*dG*dT*d[5mC]*dA*dG*d[5mC]*dA*dT*e[5mC]*eG) [compound 435727] | 73 |
| 435811 (antisense eG*eT*dG*dG*dT*d[5mC]*dA*dA*dG*dG*dA*dT*eG*eA) [compound 435811] | 27 |
| 435762 (antisense e[5mC]*eA*dG*dG*dT*dG*dT*dT*dA*dA*dG*dG*eT*eG) [compound 435762] | 0 |
| 435780 (antisense eG*eG*dA*dG*dG*dG*dA*d[5mC]*dG*dA*d[5mC]*d[5mC]*eT*eT) [compound 435780] | 28 |
| 435772 (antisense eG*e[5mC]*dA*dG*dT*d[5mC]*d[5mC]*d[5mC]*dT*dG*d[5mC]*dT*e[5mC]*eA) [compound 435772] | 42 |
| 435681 (antisense eA*eT*dG*dA*d[5mC]*d[5mC]*dT*dG*d[5mC]*dG*d[5mC]*d[5mC]*eA*e[5mC]) [compound 435681] | 40 |
| 435488 (antisense e[5mC]*eA*dG*dT*d[5mC]*d[5mC]*dT*dG*dG*dG*dT*d[5mC]*eA*eT) [compound 435488] | 17 |
| 435841 (antisense e[5mC]*eT*d[5mC]*dG*dG*dA*d[5mC]*dA*dA*dA*dA*dG*eA*eG) [compound 435841] | 1 |
| 435849 (antisense eT*eG*d[5mC]*d[5mC]*dG*dT*dA*dG*dT*dG*dG*d[5mC]*e[5mC]*eG) [compound 435849] | 31 |
| 435769 (antisense eT*eT*d[5mC]*dT*dT*dT*dG*dA*dA*dA*dA*dA*eT*eA) [compound 435769] | 0 |
| 435837 (antisense e[5mC]*eT*d[5mC]*dG*d[5mC]*d[5mC]*dT*dG*dG*dA*dA*dG*eG*eA) [compound 435837] | 37 |
| 435754 (antisense eT*e[5mC]*dA*dG*d[5mC]*dA*dA*dG*dA*dG*dT*dG*e[5mC]*eA) [compound 435754] | 16 |
| 435676 (antisense eG*eA*dT*dT*dT*dT*dG*dT*d[5mC]*dG*dA*dA*eA*e[5mC]) [compound 435676] | 11 |
| 435782 (antisense e[5mC]*eG*dT*dG*d[5mC]*dG*d[5mC]*dT*d[5mC]*dA*dG*d[5mC]*eT*e[5mC]) [compound 435782] | 36 |
| 435693 (antisense eG*eG*d[5mC]*dA*dG*dT*d[5mC]*d[5mC]*dT*dG*dG*dG*eT*e[5mC]) [compound 435693] | 43 |
| 435749 (antisense e[5mC]*eA*dG*d[5mC]*d[5mC]*dA*dG*dG*dG*d[5mC]*d[5mC]*dT*eG*eG) [compound 435749] | 29 |
| 435770 (antisense e[5mC]*eT*d[5mC]*dT*dG*dA*dG*dA*dG*dG*d[5mC]*d[5mC]*e[5mC]*e[5mC]) [compound 435770] | 81 |
| 435776 (antisense eG*eG*dG*dA*d[5mC]*dA*d[5mC]*dT*d[5mC]*dA*d[5mC]*dA*e[5mC]*eT) [compound 435776] | 51 |
| 435803 (antisense eG*eA*dG*dA*dA*dT*dT*dG*d[5mC]*d[5mC]*d[5mC]*dA*eG*eG) [compound 435803] | 0 |
| 435689 (antisense eT*eT*d[5mC]*dG*dG*dG*d[5mC]*dA*dG*dG*d[5mC]*dA*eG*eA) [compound 435689] | 23 |
| 435499 (antisense e[5mC]*eT*dG*dG*dG*dA*dG*dA*d[5mC]*d[5mC]*d[5mC]*dT*eG*eG) [compound 435499] | 59 |
| 435788 (antisense e[5mC]*e[5mC]*dT*dG*dT*dG*dA*dG*dT*dG*dT*dG*eA*eG) [compound 435788] | 20 |
| 435744 (antisense e[5mC]*eT*dA*d[5mC]*dA*dG*d[5mC]*d[5mC]*dT*d[5mC]*dA*dA*eA*e[5mC]) [compound 435744] | 19 |
| 435816 (antisense eT*e[5mC]*d[5mC]*dA*dA*dA*dG*dG*dA*d[5mC]*dA*dA*eG*eG) [compound 435816] | 4 |
| 435493 (antisense eG*eA*d[5mC]*d[5mC]*d[5mC]*dT*dG*dG*dT*dG*dT*dA*e[5mC]*eA) [compound 435493] | 58 |

From US20120214862A1, “MODULATION OF FACTOR 7 EXPRESSION” (ISIS Pharmaceuticals, Inc., priority 2009, published 2012)
